The assay deals with Histone-lysine N-methyltransferase EZH2 (Homo sapiens, UniProt Q15910, Y641F). Nature of the assay: Biological Assay: EZH2 Histone Methyl Transferase Assay: The effectiveness of compounds of the present invention as inhibitors of histone methyl transferases can be readily tested by assays known to those skilled in the art. For example, in vitro histone methyl transferase assays may be conducted with a relevant purified histone methyl transferase and an appropriate synthetic substrate to determine the inhibitory activity of the compounds. Assays for inhibition of EZH2 by the instant compounds were performed in 384-well plates with reaction mixtures containing 350 nM of histone peptide substrate (ATKAAR-K(Me2)-SAPATGGVKKPHRYRPG-GK(Biotin), 500 nM S-[methyl-3H]adenosyl-L-methionine (55-85 Ci/mmol), 50 mM Tris-HCl (pH 9.0), 50 mM NaCl, 1 mM dithiothreitol, Tween-20 at 0.01% and fatty-acid free bovine serum albumin at 0.01%, and recombinant EZH2-641F complex (EZH2 Y641F/EED/SUZ12/RbAp48/AEBP2) at 5 nM (>98% purity, BPS Bioscience) or 15 nM (50% purity, in-house). Reaction mixtures were incubated at room temperature for 3 hours, and the reactions were terminated by 0.005% poly-L-lysine solution in 20 mM Tris-HCl (pH 7.5) and 150 mM NaCl. Reaction products were captured by binding to strepavidin-conjugated imaging beads. Incorporation of radioactive methyl group into the histone peptide substrate was determined in Leadseeker (GE Healthcare) by means of scintillation proximity assay. (In general: Scintillation proximity formats need no separation of bound from free tracer.)
Sequence of Histone-lysine N-methyltransferase EZH2 (Q15910 whole entry Y641F): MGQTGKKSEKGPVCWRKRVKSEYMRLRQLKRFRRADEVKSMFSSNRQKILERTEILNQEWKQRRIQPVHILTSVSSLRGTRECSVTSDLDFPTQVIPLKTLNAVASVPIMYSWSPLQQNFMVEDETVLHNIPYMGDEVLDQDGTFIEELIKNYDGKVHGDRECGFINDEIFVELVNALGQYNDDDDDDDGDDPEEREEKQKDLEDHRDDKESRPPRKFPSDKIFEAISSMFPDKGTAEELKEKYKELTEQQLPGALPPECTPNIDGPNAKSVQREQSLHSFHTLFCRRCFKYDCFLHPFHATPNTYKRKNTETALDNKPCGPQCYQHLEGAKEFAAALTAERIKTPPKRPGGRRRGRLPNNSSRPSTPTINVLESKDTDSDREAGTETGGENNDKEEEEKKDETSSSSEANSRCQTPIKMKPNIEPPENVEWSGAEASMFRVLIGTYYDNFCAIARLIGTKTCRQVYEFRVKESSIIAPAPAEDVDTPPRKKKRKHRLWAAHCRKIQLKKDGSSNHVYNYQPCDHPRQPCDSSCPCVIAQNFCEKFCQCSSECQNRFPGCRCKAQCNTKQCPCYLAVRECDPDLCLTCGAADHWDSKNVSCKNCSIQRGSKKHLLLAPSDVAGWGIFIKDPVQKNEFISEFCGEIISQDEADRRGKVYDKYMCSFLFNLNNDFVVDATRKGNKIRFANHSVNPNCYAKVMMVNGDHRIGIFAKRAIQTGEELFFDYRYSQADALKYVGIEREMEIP

The IC50 is the concentration needed to halve the response being measured. Take `CCCc1cc(C)[nH]c(=O)c1CNC(=O)c1cc2c(c(-c3ccc(N4CCNCC4)nc3)c1)OC(C)(C(C)C)C2` (centres undefined): the IC50 is under 0.5 µM. For the molecule `C=C(C)C1(C)Cc2cc(C(=O)NCc3c(C)cc(C)[nH]c3=O)cc(-c3ccc(N4CCNCC4)nc3)c2O1` (centres undefined), the IC50 is under 0.5 µM.

Take `Cc1cc(C)c(CNC(=O)c2cc3c(c(C(F)(F)F)c2)OC(C)(C)C3)c(=O)[nH]1`: the half-inhibitory concentration (IC50) was over 1 µM.

As to `Cc1cc(C)c(CNC(=O)c2cc(Br)c3c(c2)OC/C=C\CO3)c(=O)[nH]1`, the IC50 is over 1 µM. For `C=C(C)C1(C)Cc2cc(C(=O)NCc3c(CCC)cc(C)[nH]c3=O)cc(-c3ccc(N4CCNCC4)nc3)c2O1` (centres undefined), the concentration for half-maximal inhibition (IC50) is under 0.5 µM. With `COc1ccc(-c2cc(C(=O)NCc3c(C)cc(C)[nH]c3=O)cc3c2OC(C)(C(C)C)C3)cn1` (centres undefined), the half-inhibitory concentration (IC50) was over 1 µM. For the molecule `COc1ccc(-c2cc(C(=O)NCc3c(C)cc(C)[nH]c3=O)cc3c2OCC3(C)C)cn1`, the IC50 is over 1 µM. To `C=C(C)C1(C)Cc2cc(C(=O)NCc3c(CCC)cc(C)[nH]c3=O)cc(-c3cnc(N4CCNCC4)nc3)c2O1` (centres undefined) belongs under 0.5 µM; to `CCC1COc2cc(C(=O)NCc3c(C)cc(C)[nH]c3=O)cc(-c3ccc(N4CCNCC4)nc3)c2O1` (centres undefined), over 1 µM.

For the origin of these results see ChEMBL document CHEMBL5726641, “Inhibitors of lysine methyl transferase” (2017).
